What was measured:
[1] = Blood glucose after intranasal insulin with Solutol HS15 or its individual components (Example 8); format: in vivo, male Sprague Dawley rats; details: insulin 4 IU/kg intranasal; PEG 600 10% w/v, PEG-HSA 10% w/v, HSA 0.37%, HSA-PEG-HSA 2%
Method: The PEG-HSA and HSA-PEG-HSA were prepared by refluxing polyethylene glycol 600 (PEG 600) and 12-Hydroxystearic acid (HSA) under argon at 120° C. using methane sulfonic acid. All chemicals were purchased from Sigma Aldrich.
Four components were tested in vivo. The following components were dissolved into 0.063M phosphate buffer at the concentrations below: • PEG 600—10% w/v solution • PEG-HSA—10% w/v Solution • HSA—0.37% solution • HSA-PEG-HSA—2% solution
The lower concentrations of HSA and HSA-PEG-HSA were used due to restricted solubility of these materials.
The components dissolved in phosphate buffer were then used to prepare 1 mg/mL insulin solutions and administered intranasally to male Sprague Dawley rats at a rate of 4 IU/kg. All formulations were administered with a Gilson pipette and the tip was inserted approximately 5 mm into the nostril. The animals were housed in limited access rooms where the temperature and humidity were maintained at 21° C.±2° C. and 55%±15% relative respectively; the rooms were lit with artificial light for 12 hours each day. Blood samples were collected from the tail vein of the rats at 0 min (Pre-dose) and 5, 15, 30, 60 and 120 minutes after administration into heparinized tubes, centrifuged and the plasma collected. Blood glucose was measured immediately at each sampling point using a one touch Ultra 2 glucose meter (LifeScan, UK).

[2] = Blood glucose after intranasal insulin in Solutol HS15 solutions (Example 1); format: in vivo, Sprague Dawley rats; details: control insulin solutions, without Solutol HS15
Method: The formulations were then administered intranasally to Sprague Dawley rats at 4 IU/kg and blood samples taken at frequent intervals up to 2 hours after administration. Blood glucose was measured using a standard glucose meter and insulin determined in the plasma by an enzyme linked immunosorbant assay (ELISA).
A group of rats was also administered with insulin dissolved in PBS via subcutaneous injection as comparison to the intranasal doses.

Compound	drop in blood glucose levels [1]	decrease in plasma glucose levels [2] [%]
CCCCCCC(O)CCCCCCCCCCC(=O)O (centres unmarked) [HSA, 12-Hydroxystearic acid]	did not	–
insulin: Insulin (available from Sigma-Aldrich)	–	15
